Numbers after ± are expanded uncertainties.
Conditions: Liquid, Closed cell (Static) method

In the case of O [water], the “vapor or sublimation pressure” value (313.16 K) is reported as 7.46 ± 2.5 kPa, the “vapor or sublimation pressure” value (323.16 K) is reported as 12.54 ± 2.6 kPa and the “vapor or sublimation pressure” value (333.16 K) is reported as 20.24 ± 2.8 kPa. The “vapor or sublimation pressure” value (343.16 K) was 31.54 ± 3.2 kPa, the “vapor or sublimation pressure” value (353.16 K) was 48.25 ± 3.8 kPa and the “vapor or sublimation pressure” value (363.16 K) was 70.49 ± 4.7 kPa. The “vapor or sublimation pressure” value (373.16 K) was 101.98 ± 5.3 kPa.
